Results reported in ChEMBL document CHEMBL4387705, “Synthesis of new arylsulfonylspiroimidazolidine-2',4'-diones and study of their effect on stimulation of insulin release from MIN6 cell line, inhibition of human aldose reductase, sorbitol accumulations in various tissues and oxidative stress” (Eur J Med Chem, 2019).
Calls of active or inactive are those of the source. The calls are words filed in the database; no cut-off is given here.

Tests used:
[1] = Antioxidant activity assessed as DPPH radical scavenging activity at 10 uM incubated for 30 mins under dark condition by spectrophotometry; type: functional
[2] = target: T1, Aldo-keto reductase family 1 member B1 (Homo sapiens, UniProt P15121); assay: Uncompetitive Inhibition of ALR2 (unknown origin) using varying level of D,L-glyceraldehyde as substrate at 10 uM in presence of NADPH by Lineweaver-Burk plot analysis
[3] = target: Aldo-keto reductase family 1 member B1 (Rattus norvegicus) (UniProt P07943); assay: (§1) Inhibition of ALR2 in rat erythrocytes assessed as reduction in sorbitol accumulation incubated for 3 hrs in presence of 28 mM glucose by gas chromatographic analysis relative to control; type: cell-based
[4] = target: T2, Aldo-keto reductase family 1 member B1 (Rattus norvegicus, UniProt P07943); assay: as §1; type: cell-based
MIN6 [5] = assay: Cytotoxicity against mouse MIN6 cells assessed as reduction in cell viability up to 200 uM incubated for 24 hrs by MTT assay; type: cell-based; settings: min6, 24 h
[6] = target: T1, Aldo-keto reductase family 1 member B1; assay: Uncompetitive Inhibition of ALR2 (unknown origin) using fixed level of D,L-glyceraldehyde as substrate at 10 uM in presence of varying level of NADPH by Lineweaver-Burk plot analysis
[7] = Cytotoxicity against HEK293 cells assessed as reduction in cell viability at 50 uM incubated for 48 hrs by MTT assay relative to control; type: cell-based; settings: human, read-out: INH
MIN6 [8] = assay: Effect on cell morphology in mouse MIN6 cells assessed as cell viability up to 400 uM incubated for 24 hrs; type: cell-based; settings: min6, 24 h
[9] = Cytotoxicity against HEK293 cells assessed as reduction in cell viability at 200 uM incubated for 48 hrs by MTT assay relative to control; type: cell-based; settings: human, read-out: INH
[10] = target: T1, Aldo-keto reductase family 1 member B1; assay: Inhibition of human recombinant ALR2 expressed in Escherichia coli using DL-glyceraldehyde as substrate and NADPH preincubated for 5 mins followed by substrate addition and measured after 30 mins at 2 mins interval by spectrophotometry relative to control
[11] = target: Aldo-keto reductase family 1 member B1 (Rattus norvegicus) (UniProt P07943); assay: (§2) Inhibition of ALR2 in rat lens assessed as reduction in sorbitol accumulation incubated for 3 hrs in presence of 28 mM glucose by gas chromatographic analysis relative to control
[12] = target: T2, Aldo-keto reductase family 1 member B1; assay: as §2
Mus musculus = assay: Antihyperglycemic activity in alloxanized BALB/c mouse assessed as reduction in blood glucose level at 150 mg/kg, po measured after 8 hrs relative to control; type: functional
[13] = Selectivity ratio of IC50 for rat kidney ALR1 IC50 to IC50 for human recombinant ALR2
[14] = target: T1, Aldo-keto reductase family 1 member B1; assay: Non-competitive Inhibition of ALR2 (unknown origin) using varying level of D,L-glyceraldehyde as substrate at 20 uM in presence of NADPH by Lineweaver-Burk plot analysis
[15] = Cytotoxicity against HEK293 cells assessed as reduction in cell viability at 100 uM incubated for 48 hrs by MTT assay relative to control; type: cell-based; settings: human, read-out: INH
[16] = Antioxidant activity assessed as DPPH radical scavenging activity at 50 uM incubated for 30 mins under dark condition by spectrophotometry; type: functional
[17] = Antioxidant activity assessed as DPPH radical scavenging activity at 100 uM incubated for 30 mins under dark condition by spectrophotometry; type: functional
[18] = Cytotoxicity against HEK293 cells assessed as reduction in cell viability at 25 uM incubated for 48 hrs by MTT assay relative to control; type: cell-based; settings: human, read-out: INH
[19] = Cytotoxicity against mouse MIN6 cells assessed as cell viability at 400 uM incubated for 24 hrs by MTT assay; type: cell-based; settings: read-out: Activity
MIN6 [20] = assay: Antidiabetic activity in mouse MIN6 cells after 35 passages assessed as increase in insulin secretion at 100 uM in presence of 25 mM glucose by ELISA relative to control; type: functional
[21] = target: Aldo-keto reductase family 1 member B1 (Rattus norvegicus) (UniProt P07943); assay: (§3) Inhibition of ALR2 in rat sciatic nerve assessed as reduction in sorbitol accumulation incubated for 3 hrs in presence of 28 mM glucose by gas chromatographic analysis
[22] = target: T2, Aldo-keto reductase family 1 member B1; assay: as §3
[23] = target: T1, Aldo-keto reductase family 1 member B1; assay: Non-competitive Inhibition of ALR2 (unknown origin) using fixed level of D,L-glyceraldehyde as substrate at 20 uM in presence of varying level of NADPH by Lineweaver-Burk plot analysis
MIN6 [24] = assay: Antidiabetic activity in mouse MIN6 cells after 83 passages assessed as increase in insulin secretion at 100 uM in presence of 25 mM glucose by ELISA relative to control; type: functional
[25] = target: Aldo-keto reductase family 1 member A1 (Rattus norvegicus, UniProt P51635); assay: Inhibition of rat kidney ALR1 using DL-glyceraldehyde as substrate and NADPH preincubated for 5 mins followed by substrate addition and measured for 30 mins at 2 mins interval by spectrophotometry relative to control
[26] = tested on: CC(C)c1ccc(S(=O)(=O)N2C(=O)NC(=O)C23CCCc2ccccc23)cc1; assay: Uncompetitive Inhibition of ALR2 (unknown origin) assessed as substrate Km using varying level of D,L-glyceraldehyde as substrate at 10 uM in presence of NADPH by Lineweaver-Burk plot analysis (reference value: 0.585 mM); settings: Homo sapiens
MIN6 [27] = assay: Antidiabetic activity in mouse MIN6 cells after 35 passages assessed as increase in insulin secretion incubated for 48 hrs presence of 1 mM glucose by ELISA; type: functional, cell-based
MIN6 [28] = assay: Antidiabetic activity in mouse MIN6 cells after 83 passages assessed as increase in insulin secretion incubated for 48 hrs presence of 1 mM glucose by ELISA; type: functional, cell-based
MIN6 [29] = assay: Antidiabetic activity in mouse MIN6 cells after 35 passages assessed as increase in insulin secretion incubated for 48 hrs presence of 25 mM glucose by ELISA; type: functional, cell-based
MIN6 [30] = assay: Antidiabetic activity in mouse MIN6 cells after 83 passages assessed as increase in insulin secretion incubated for 48 hrs presence of 25 mM glucose by ELISA; type: functional, cell-based

Sequence of Aldo-keto reductase family 1 member A1 (P51635 whole entry, looked up): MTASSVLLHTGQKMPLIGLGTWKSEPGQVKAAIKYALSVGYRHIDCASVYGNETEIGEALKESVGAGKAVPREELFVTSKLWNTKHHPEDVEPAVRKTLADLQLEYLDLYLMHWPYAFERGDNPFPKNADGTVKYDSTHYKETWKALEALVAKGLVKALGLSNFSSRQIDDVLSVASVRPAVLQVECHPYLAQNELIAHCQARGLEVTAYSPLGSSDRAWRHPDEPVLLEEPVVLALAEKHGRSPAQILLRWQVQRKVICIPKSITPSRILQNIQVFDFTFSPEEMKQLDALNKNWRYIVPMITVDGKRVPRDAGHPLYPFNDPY

Row | inhibition [3] | IC50 [4] [µM] | IC50 [10] [µM] | inhibition [11] | IC50 [12] [µM] | Ratio IC50 [13] | inhibition [21] | IC50 [22] [µM] | Compound | inhibition [1] [%] | Activity (MIN6 [5]) | cytotoxicity at 48 h, 50 µM [7] [%] | Activity (MIN6 [8]) | cytotoxicity at 48 h, 200 µM [9] [%] | cytotoxicity at 48 h, 100 µM [15] [%] | inhibition [16] [%] | inhibition [17] [%] | cytotoxicity at 48 h, 25 µM [18] [%] | viability at 24 h, 400 µM [19] [%] | Activity (MIN6 [20]) [%] | Activity (MIN6 [24]) [%] | further results
1 | Dose-dependent effect | 0.85 | 0.56 | Dose-dependent effect | 0.83 | 73.7 | Dose-dependent effect | 0.72 | CC(C)c1ccc(S(=O)(=O)N2C(=O)NC(=O)C23CCCc2ccccc23)cc1 (stereo not given) | 72.7 | Non-Toxic | 16.2 | Non-Toxic | 22.3 | 16.1 | 75.2 | 85.3 | 14.2 | 81 | 230 | 192 | inhibition [2]: Active; inhibition [6]: Active; inhibition in vivo at 150 mg/kg (Mus musculus): 50.3%; inhibition [14]: Active; inhibition [23]: Active; IC50 [25]: 68.2 µM
2 | – | – | – | – | – | – | – | – | Aldo-keto reductase family 1 member B1 (Homo sapiens) (from UniProt P15121) | – | – | – | – | – | – | – | – | – | – | – | – | Km [26]: 537 µM
3 | Dose-dependent effect | 10.3 | 8.02 | Dose-dependent effect | 10.7 | 4.05 | Dose-dependent effect | 13 | CC(C)c1ccc(S(=O)(=O)N2C(=O)NC3(CCCc4ccccc43)C2=O)cc1 (stereo not given) | 82.3 | Non-Toxic | 12.5 | Non-Toxic | 18.5 | 12.6 | 84.2 | 92.3 | 10.1 | 81 | 295 | 84 | Activity (MIN6 [27]): inactive; Activity (MIN6 [28]): inactive; Activity (MIN6 [29]): inactive; IC50 [25]: 32.5 µM
4 | Dose-dependent effect | 7.15 | 5.66 | Dose-dependent effect | 7.44 | 1.88 | Dose-dependent effect | 6.37 | COc1ccc(S(=O)(=O)N2C(=O)NC(=O)C23CCCc2ccccc23)cc1 (stereo not given) | 41.4 | Non-Toxic | 21.1 | Non-Toxic | 27.5 | 25.2 | 53.3 | 66.8 | 14 | 81 | 170 | 122 | IC50 [25]: 10.6 µM
5 | Dose-dependent effect | 0.6 | 0.64 | Dose-dependent effect | 0.65 | 53.7 | Dose-dependent effect | 0.67 | CC(=O)c1ccc(S(=O)(=O)N2C(=O)NC(=O)C23CCCc2ccccc23)cc1 (stereo not given) | 25.2 | Non-Toxic | 23.2 | Non-Toxic | 34.6 | 26.6 | 39.7 | 75.5 | 16.3 | 81 | 370 | 228 | Activity (MIN6 [30]): Active; Activity (MIN6 [27]): Active; Activity (MIN6 [28]): Active; inhibition in vivo at 150 mg/kg (Mus musculus): 52.2%; Activity (MIN6 [29]): Active; IC50 [25]: 32.2 µM
6 | – | – | – | – | – | – | – | – | CCCCNC(=O)NS(=O)(=O)c1ccc(C)cc1 [TOLBUTAMIDE] | – | – | – | – | – | – | – | – | – | – | 340 | 110 | Activity (MIN6 [30]): Active; Activity (MIN6 [27]): Active; Activity (MIN6 [28]): Active; inhibition in vivo at 150 mg/kg (Mus musculus): 47.2%; Activity (MIN6 [29]): Active
